This passage reports EC50, IC50 and AC50 results from ChEMBL document CHEMBL1201862, “PubChem BioAssay data set” (2004).

Activity calls are given as the source filed them.

One assay concerns H4. Briefly: Luminescence Cell-Based Dose Response HTS to Identify Activators of 5'UTR Stem-Loop Driven Prion Protein mRNA Translation in H4 Neuroglioblastoma Cells. [Related pubchem assays: 1829 (Project Summary), 1814 (Primary HTS)]. In kind it is functional. The note with it: Homo sapiens.
Assay [1] is described as follows: viability loss of HPDE-C7K cells – cell-based, fluorescence, HTS, primary screen (AID 431). Type of assay: functional. The note with it: Homo sapiens.
The nature of assay [2]: HPDE-C7 pancreatic duct cell viability loss – fluorescence, HTS (AID 430). Type of assay: functional, cell-based. The note with it: Homo sapiens.
The nature of assay [3]: Luminescence Cell-Based Dose Response HTS to Identify Activators of Luciferase Translation or Activity in H4 […] Cells. [Related pubchem assays: 1829 (Project Summary), 1814 (Primary HTS)]. Type of assay: functional.
Assay [4] can be described thus: Luminescence Cell-Based Dose Confirmation HTS to Identify Activators of 5'UTR Stem-Loop Driven Alpha-Synuclein mRNA Translation in H4 Neuroglioblastoma Cells. [Related pubchem assays: 1829 (Project Summary), 1814 (Primary HTS)]. Type of assay: functional.
Assay [5] concerns the target T1, Mannose-6-phosphate isomerase (Homo sapiens, UniProt P34949).
T1 sequence (P34949 whole entry): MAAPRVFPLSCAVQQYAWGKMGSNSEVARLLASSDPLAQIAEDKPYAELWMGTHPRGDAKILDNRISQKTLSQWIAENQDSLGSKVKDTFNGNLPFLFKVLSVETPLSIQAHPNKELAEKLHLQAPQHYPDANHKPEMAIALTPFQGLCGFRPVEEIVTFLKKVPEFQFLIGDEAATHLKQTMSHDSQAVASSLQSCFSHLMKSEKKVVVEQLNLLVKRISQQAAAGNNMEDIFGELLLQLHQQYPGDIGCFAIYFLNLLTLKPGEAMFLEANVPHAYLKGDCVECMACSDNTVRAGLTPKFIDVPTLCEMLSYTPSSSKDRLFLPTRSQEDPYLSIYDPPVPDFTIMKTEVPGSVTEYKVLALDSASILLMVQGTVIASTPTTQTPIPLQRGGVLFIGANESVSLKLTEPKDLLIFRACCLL
The experiment in a line: MPI inhibition at elevated mannose 6-phosphate – biochemical, fluorescence intensity, high mannose 6-phosphate, primary screen (AID 1220).

Assay [6] in a line: viability loss in human Jurkat cells – cell-based, luminescence, cytotoxicity control for P. falciparum gametocyte viability project, dose response (AID 1117277).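 Note: potency reflects loss of cellular ATP meaning fewer viable cells.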 In kind it is functional.
Assay [7] can be described thus: viability inhibitors of stage V gametocytes – luminescence, dose response (AID 1117278).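 Note: gametocytes exposed to compound for 24 hours.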 In kind it is functional, cell-based.
The target in assay [8] is T1, Mannose-6-phosphate isomerase. Briefly: MPI enzyme activity inhibition – biochemical, fluorescence intensity, coupled assay, primary screen (AID 1209).
The target of assay [9] is T2, Epstein-Barr nuclear antigen 1 (Epstein-Barr virus (strain B95-8) (HHV-4) (Human herpesvirus 4), UniProt P03211).
T2 sequence (P03211 whole entry): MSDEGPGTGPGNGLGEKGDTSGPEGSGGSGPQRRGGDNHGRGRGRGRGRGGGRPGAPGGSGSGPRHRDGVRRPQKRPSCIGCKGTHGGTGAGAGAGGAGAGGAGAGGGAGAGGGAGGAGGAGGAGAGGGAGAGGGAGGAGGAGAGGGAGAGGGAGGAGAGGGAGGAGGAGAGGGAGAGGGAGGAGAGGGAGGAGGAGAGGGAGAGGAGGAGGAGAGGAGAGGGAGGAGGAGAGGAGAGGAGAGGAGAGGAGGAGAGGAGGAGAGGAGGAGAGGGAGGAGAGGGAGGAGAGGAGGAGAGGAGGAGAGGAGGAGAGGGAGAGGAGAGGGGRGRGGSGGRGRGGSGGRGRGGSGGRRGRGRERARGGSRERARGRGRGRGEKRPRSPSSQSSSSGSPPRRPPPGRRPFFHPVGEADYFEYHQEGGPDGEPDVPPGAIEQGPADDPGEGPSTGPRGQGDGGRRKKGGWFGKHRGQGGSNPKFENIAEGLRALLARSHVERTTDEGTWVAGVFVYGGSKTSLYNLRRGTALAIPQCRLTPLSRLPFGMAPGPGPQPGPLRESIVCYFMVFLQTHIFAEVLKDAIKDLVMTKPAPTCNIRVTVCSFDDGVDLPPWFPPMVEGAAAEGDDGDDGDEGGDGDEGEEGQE
The experiment in a line: inhibition of EBV nuclear antigen 1 DNA binding – biochemical, fluorescence polarization, 1536-well, dose response (AID 2381).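 Note: fluorescence polarization of a Cy5 DNA probe bound by EBNA-1 protein.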 The arrangement: species or system human gammaherpesvirus 4. On the technique in general: In fluorescence polarisation assays a small probe gives low polarisation when free and higher when bound to something large.

In assay [10] the target is T3, Lytic switch protein BZLF1 (Epstein-Barr virus (strain B95-8) (HHV-4) (Human herpesvirus 4), UniProt P03206).
T3 sequence (P03206 whole entry): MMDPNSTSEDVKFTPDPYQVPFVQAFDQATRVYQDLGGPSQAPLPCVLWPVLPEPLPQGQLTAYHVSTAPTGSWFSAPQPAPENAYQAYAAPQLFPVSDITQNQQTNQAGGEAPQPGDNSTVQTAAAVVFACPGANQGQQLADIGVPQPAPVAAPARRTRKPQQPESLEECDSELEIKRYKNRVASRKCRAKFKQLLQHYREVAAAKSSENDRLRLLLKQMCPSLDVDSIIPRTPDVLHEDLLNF
The experiment in a line: inhibition of BZLF1 ZTA DNA binding – biochemical, fluorescence polarization, Epstein-Barr virus, 1536-well, counter-screen for EBNA-1 inhibitor project, dose response (AID 2377).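 Note: fluorescence polarization of Cy5-labelled ZRE DNA probe bound by purified Zta.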 On the set-up: species or system human gammaherpesvirus 4.

Assay [11] deals with DNA dC->dU-editing enzyme APOBEC-3G (Homo sapiens, UniProt Q9HC16). Briefly: Dose Response confirmation of small molecule APOBEC3G DNA Deaminase Inhibitors via a fluorescence-based single-stranded DNA deaminase assay. [Related pubchem assays (depositor defined):AID493012, AID493028]. In kind it is functional.
Assay [12] is described as follows: Luminescence-based cell-based high throughput dose response assay to identify activators of the DAF-12 from the parasite S. stercoralis (ssDAF-12). In kind it is functional.
Assay [13] concerns the target T4, Rac GTPase-activating protein 1 (Homo sapiens, UniProt Q9H0H5).
T4 sequence (Q9H0H5 whole entry): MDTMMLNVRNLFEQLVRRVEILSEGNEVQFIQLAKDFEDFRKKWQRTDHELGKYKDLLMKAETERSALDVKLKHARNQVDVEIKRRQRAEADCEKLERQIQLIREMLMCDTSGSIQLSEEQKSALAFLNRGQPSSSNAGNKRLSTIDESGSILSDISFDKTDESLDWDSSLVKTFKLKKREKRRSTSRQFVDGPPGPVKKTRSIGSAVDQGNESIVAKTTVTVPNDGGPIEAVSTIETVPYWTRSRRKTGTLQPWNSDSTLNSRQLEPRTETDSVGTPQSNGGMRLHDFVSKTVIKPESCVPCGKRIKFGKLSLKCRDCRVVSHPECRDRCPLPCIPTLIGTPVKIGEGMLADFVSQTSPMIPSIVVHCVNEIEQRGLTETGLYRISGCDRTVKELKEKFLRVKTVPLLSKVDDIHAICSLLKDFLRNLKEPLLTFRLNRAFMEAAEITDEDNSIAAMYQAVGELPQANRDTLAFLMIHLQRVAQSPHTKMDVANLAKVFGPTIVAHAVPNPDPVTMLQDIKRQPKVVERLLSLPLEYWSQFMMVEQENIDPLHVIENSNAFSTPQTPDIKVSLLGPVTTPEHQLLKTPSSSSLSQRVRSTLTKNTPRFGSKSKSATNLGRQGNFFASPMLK
The experiment in a line: blockers of MgcRacGAP-driven Rac1 GTP hydrolysis – biochemical, ADP Hunter fluorescence, primary and confirmatory, confirmation (AID 624330). Type of assay: functional.

Assay [14] addresses T5, Oxysterols receptor LXR-beta (Homo sapiens, UniProt P55055).
T5 sequence (P55055 whole entry): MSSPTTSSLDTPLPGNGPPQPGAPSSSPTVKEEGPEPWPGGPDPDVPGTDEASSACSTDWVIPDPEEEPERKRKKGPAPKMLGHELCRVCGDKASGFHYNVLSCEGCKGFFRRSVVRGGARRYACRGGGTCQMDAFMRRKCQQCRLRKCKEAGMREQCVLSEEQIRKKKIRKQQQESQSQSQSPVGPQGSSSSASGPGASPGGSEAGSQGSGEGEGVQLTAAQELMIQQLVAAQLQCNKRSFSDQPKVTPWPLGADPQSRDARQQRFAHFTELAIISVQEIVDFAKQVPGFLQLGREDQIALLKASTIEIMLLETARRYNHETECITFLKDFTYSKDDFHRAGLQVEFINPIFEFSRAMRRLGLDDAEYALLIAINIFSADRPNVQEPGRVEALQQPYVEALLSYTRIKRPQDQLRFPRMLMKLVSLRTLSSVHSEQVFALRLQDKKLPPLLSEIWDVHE
The experiment in a line: LXR agonists, Gal4 luciferase reporter, dose response, counter-screen for ssDAF-12 agonist project, cell-based, luminescence, HEK293, S. stercoralis campaign (AID 720737). In kind it is functional. The note with it: read-out: IC50 (the source's name). In general terms: In a reporter assay the amount or activity of a reporter protein is the signal.

Assay [15] in a line: toxicity to human HepG2 hepatoma cells – cell-based, plate reader, dry powder samples, cytotoxicity control, dose response (AID 1159569).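 Note: inhibitor potency with signal falling toward the positive control level.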 In kind it is functional.
Assay [16] in a line: growth inhibition of yeast DHODH-expressing 3D7 parasites – SYBR Green, dry powder samples, dose response (AID 1159570).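 Note: parasite growth measured after 72 hours of compound exposure.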 In kind it is functional, cell-based.
Assay [17] can be described thus: Dd2 malaria parasite growth inhibition potency – SYBR Green, dry powder samples, dose response (AID 1159566).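 Note: potency for growth inhibition with lower SYBR green DNA signal.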 Type of assay: functional, cell-based.
Assay [18] is described as follows: growth inhibition of PfATP4-mutant resistant parasites – NITD609-resistant line, SYBR Green, dry powder, dose response (AID 1159571).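 Note: parasites synchronized at ring stage by sorbitol before testing.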 In kind it is functional, cell-based.
Assay [19] is described as follows: P. falciparum Dd2 growth inhibitors, dose response, SYBR Green, cherry-picked samples (AID 1159567). Type of assay: functional, cell-based.
Assay [20] in a line: toxicity to human hepatoma HepG2 cells – cell-based, cherry-picked samples, cytotoxicity control, dose response (AID 1159577). Type of assay: functional.

Sequence of DNA dC->dU-editing enzyme APOBEC-3G (Q9HC16 whole entry): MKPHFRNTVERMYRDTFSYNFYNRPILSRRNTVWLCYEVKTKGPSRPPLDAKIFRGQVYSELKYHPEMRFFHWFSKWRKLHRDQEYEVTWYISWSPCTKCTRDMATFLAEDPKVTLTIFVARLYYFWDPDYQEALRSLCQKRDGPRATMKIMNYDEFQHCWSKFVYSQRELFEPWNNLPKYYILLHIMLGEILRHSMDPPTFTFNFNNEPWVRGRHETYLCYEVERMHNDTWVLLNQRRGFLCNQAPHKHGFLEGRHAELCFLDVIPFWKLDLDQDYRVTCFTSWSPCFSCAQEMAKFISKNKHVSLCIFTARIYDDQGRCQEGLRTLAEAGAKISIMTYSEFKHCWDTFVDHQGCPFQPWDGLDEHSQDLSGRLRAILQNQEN

As to `CC1(C)Cc2c(c(N3CCOCC3)nc3snc(N)c23)CO1`, the EC50 in the assay on H4 is > 120 µM (not active); in assay [1] it was 7.17 µM (active); in assay [2] it was 7.52 µM (active); in assay [3], > 120 µM (not active); in assay [4], 40.9 µM (active).
Consider `N#Cc1c(NCCCO)nc(NCc2ccccc2)c2c1CCN(Cc1ccccc1)C2`, for which the figures for the EC50 in assay [1] and in assay [2] were 11.9 µM (active) and 19.8 µM (active), respectively. Besides, in [5], the IC50 is listed as > 50 µM (not active).
Consider `CC(C)CN1CCN(Cc2nc(C(C)C)cs2)CC1CCO` (centres undefined), for which the IC50 in assay [6] was > 83.3 µM (inactive); in assay [7], > 109 µM (inactive).
Turning to `N#Cc1c(N)n(-c2ccc(O)cc2)c2nc3ccccc3nc12`, the IC50 was > 83.4 µM (inactive) in [6] and > 109 µM (inactive) in assay [7].
Regarding `Cc1c(NC(=O)CSc2ccccc2F)c(=O)n(-c2ccccc2)n1C`, the half-maximal inhibitory concentration (IC50) in assay [8] is > 50 µM (not active).
On to `Cc1ccc(NC(=O)CCn2c(=S)oc3ccccc32)cc1`, for which the IC50 in [9] is 14.2 µM (not active); in [10] it was > 111 µM (not active).
For `NC(=O)c1cc(-c2ccccc2)sc1NC(=O)Cc1ccc(S(=O)(=O)N2CCOCC2)s1` the same measures were > 5.47 µM (active) and > 111 µM (not active).
As for `COCC(=O)Nc1ccc(Br)cc1C`, the IC50 in assay [6] is > 83.3 µM (inactive); in assay [7], > 109 µM (inactive).
As to `COc1ccc(Cc2nnc(S)n2N)cc1OC`, the IC50 was 17.8 µM (active) in assay [11] and 31.9 µM (active) in assay [8].
As to `Cc1ccc(/C=N/Nc2ccc(Cl)c(C(=O)O)c2)s1`, the figures for the IC50 in assay [12] and in [13] were > 67.6 µM (inactive) and 80.5 µM (active), respectively. In addition, the EC50 in [14] is > 67.6 µM (inactive).
As for `COc1ccc2c3c([nH]c2c1)[C@H](CO)N(C(=O)Nc1ccc(F)cc1)CC31CCN(S(=O)(=O)c2cccc(F)c2)CC1`, the AC50 in assay [15] was 22 µM (active); in assay [16] it was 1.22 µM (active); in assay [17], 0.751 µM (active); in assay [18], 0.103 µM (active); in assay [19] it was 0.883 µM (active).
As for `C[C@H]1CN([C@@H](C)CO)C(=O)c2c(c3ccccc3n2C)-c2ccccc2CO[C@@H]1CN(C)Cc1cccc2c1OCCCO2`, the AC50 in assay [19] was 4.74 µM (active); in assay [20], 29.8 µM (active).
On to `COc1ccc(C#Cc2ccc3c(c2)[C@H]2[C@H](CCN2Cc2ccncc2)[C@@H](CO)N3)cc1`, for which the AC50 in assay [15] is 62.5 µM (active); in assay [16], 1.95 µM (active); in assay [17], 1.16 µM (active); in assay [18], 1.67 µM (active); in assay [19], 2.38 µM (active).
`OC[C@@H]1[C@H](c2ccc(C3=CCCC3)cc2)[C@H]2CN(CCC(F)(F)F)CCCCN12`: the AC50 was 1.2 µM (active) in assay [19] and 18.7 µM (active) in assay [20].
For the compound `COc1ccccc1CN1C[C@@H]2N[C@H](C1)[C@@H]2c1ccc(-c2cccnc2)cc1`, the AC50 was 29.6 µM (active) in [15]; 3.2 µM (active) in assay [16]; 1.35 µM (active) in assay [17]; 1.78 µM (active) in assay [18]; 2.1 µM (active) in assay [19]; 28.5 µM (active) in assay [20].

The term IC50 denotes the midpoint of a concentration-inhibition curve. One may read the AC50 as the midpoint of the concentration-response curve, whichever way the signal moves.
